Assay results from ChEMBL document CHEMBL4043137, “Structure-based design, synthesis and in vitro antiproliferative effects studies of novel dual BRD4/HDAC inhibitors” (Bioorg Med Chem Lett, 2017).

Columns and labels:
OCI-AML-3 = assay: cells; type: functional, cell-based; details: Homo sapiens, OCI-AML-3, 72 h
Description: Antiproliferative activity against human OCI-AML3 cells after 72 hrs by MTT assay

OCI-AML2 = assay: cells; type: functional, cell-based; details: Homo sapiens, OCI-AML2, 72 h
Description: Antiproliferative activity against human OCI-AML2 cells after 72 hrs by MTT assay

MV4-11 = assay: cells; type: functional, cell-based; details: Homo sapiens, MV4-11, 72 h
Description: Antiproliferative activity against human MV4-11 cells after 72 hrs by MTT assay

[1] = target: T1, Bromodomain-containing protein 4 (Homo sapiens, UniProt O60885); assay: Inhibition of human BRD4 bromo domain 2 at 5 uM
[2] = target: T1, Bromodomain-containing protein 4; assay: Inhibition of human BRD4 bromo domain 2 at 0.5 uM
[3] = target: T1, Bromodomain-containing protein 4; assay: Inhibition of BRD4 (unknown origin)
[4] = target: T1, Bromodomain-containing protein 4; assay: Inhibition of human BRD4 bromo domain 1
[5] = target: T1, Bromodomain-containing protein 4; assay: Inhibition of human BRD4 bromo domain 2
Histone deacetylase 1 = Histone deacetylase 1 (Homo sapiens, UniProt Q13547); assay: Inhibition of recombinant human HDAC1 after 30 mins by fluorescence assay
Sequence of Histone deacetylase 1 (Q13547 whole entry): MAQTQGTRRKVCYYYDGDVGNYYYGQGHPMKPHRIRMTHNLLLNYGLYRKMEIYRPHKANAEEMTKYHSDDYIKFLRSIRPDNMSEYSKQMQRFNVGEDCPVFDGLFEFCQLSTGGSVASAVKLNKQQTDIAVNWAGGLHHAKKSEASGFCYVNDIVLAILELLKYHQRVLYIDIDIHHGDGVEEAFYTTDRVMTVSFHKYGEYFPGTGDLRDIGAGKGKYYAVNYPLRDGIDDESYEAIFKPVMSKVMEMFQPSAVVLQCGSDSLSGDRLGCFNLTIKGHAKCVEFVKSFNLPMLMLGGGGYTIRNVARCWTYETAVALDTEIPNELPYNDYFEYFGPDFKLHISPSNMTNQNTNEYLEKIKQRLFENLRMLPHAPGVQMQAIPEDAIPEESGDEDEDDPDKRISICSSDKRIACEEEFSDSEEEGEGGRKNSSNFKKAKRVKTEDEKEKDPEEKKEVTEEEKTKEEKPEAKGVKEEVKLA

Row | IC50 (OCI-AML-3) [nM] | IC50 (OCI-AML2) [nM] | IC50 (MV4-11) [nM] | inhibition [1] [%] | inhibition [2] [%] | IC50 [3] [nM] | IC50 [4] [nM] | IC50 [5] [nM] | IC50 (Histone deacetylase 1) [nM] | SMILES
1 | 7170 | 8310 | 4480 | – | – | – | – | – | – | COc1cc(OC)c2c(=O)[nH]c(-c3cc(C)c(OCCO)c(C)c3)nc2c1 [APABETALONE]
2 | 3040 | 6360 | 1390 | 93 | 51 | – | – | – | – | COc1cc(OC)c2c(=O)[nH]c(-c3cc(C)c(Oc4ccc(C(=O)NO)cn4)c(C)c3)nc2c1
3 | – | – | – | 93 | 41 | – | – | – | – | COc1cc(OC)c2c(=O)[nH]c(-c3cc(C)c(OC/C=C/C(=O)NO)c(C)c3)nc2c1
4 | 1830 | 2210 | 2220 | 99 | 59 | – | – | – | – | COc1cc(OC)c2c(=O)[nH]c(-c3cc(C)c(OCCCCCCCC(=O)NO)c(C)c3)nc2c1
5 | 5530 | 4530 | 5000 | 90 | 42 | – | – | – | – | COc1cc(OC)c2c(=O)[nH]c(-c3cc(C)c(OCCCC(=O)NO)c(C)c3)nc2c1
6 | – | – | – | – | – | 5 | – | – | – | Cc1[nH]c2ccccc2c1CCNCc1ccc(/C=C/C(=O)NO)cc1 [PANOBINOSTAT]
7 | 1800 | 1780 | 1970 | – | – | – | – | – | – | COc1cc(OC)c2c(=O)[nH]c(-c3ccc(OCc4ccc(/C=C/C(=O)NO)cc4)cc3)nc2c1
8 | 11100 | 13600 | 4280 | – | – | – | – | – | – | COc1cc(OC)c2c(=O)[nH]c(-c3ccc(OCCCCCC(=O)NO)cc3)nc2c1
9 | 1090 | 1520 | 1670 | 91 | 73 | – | > 5000 | 225 | 32 | COc1cc(OC)c2c(=O)[nH]c(-c3cc(C)c(OCCCCC(=O)NO)c(C)c3)nc2c1
10 | 670 | 980 | 920 | 97 | 90 | – | – | – | – | COc1cc(OC)c2c(=O)[nH]c(-c3cc(C)c(OCCCCCC(=O)NO)c(C)c3)nc2c1
11 | – | – | – | 98 | 87 | – | – | – | – | COc1cc(OC)c2c(=O)[nH]c(-c3cc(C)c(O)c(C)c3)nc2c1
12 | – | – | – | – | – | 36 | – | – | – | C/C=C1\NC(=O)[C@H]2CSSCC/C=C/[C@H](CC(=O)N[C@H](C(C)C)C(=O)N2)OC(=O)[C@H](C(C)C)NC1=O [ROMIDEPSIN]
13 | – | – | – | 88 | 29 | – | – | – | – | COc1cc(OC)c2c(=O)[nH]c(-c3cc(C)c(OCCCCCCC(=O)NO)c(C)c3)nc2c1
14 | – | – | – | 10 | 2 | 10 | – | – | – | O=C(CCCCCCC(=O)Nc1ccccc1)NO [VORINOSTAT]
15 | 9310 | 12200 | 9880 | – | – | – | – | – | – | COc1cc(OC)c2c(=O)[nH]c(-c3ccc(OCCCCC(=O)NO)cc3)nc2c1
16 | 430 | 380 | 560 | 83 | 62 | – | > 5000 | 401 | 204 | COc1cc(OC)c2c(=O)[nH]c(-c3cc(C)c(OCc4ccc(/C=C/C(=O)NO)cc4)c(C)c3)nc2c1
